The target of one experiment is human DGKζ (Homo sapiens (Human), UniProt Q13574). Kind of experiment: DGKζ LIPGLO assay (extruded liposome substrate, ADP-Glo luminescence). In kind it is biochemical. The following applies: liposome (LIPGLO) assay; read-out: DGK zeta (liposome assay) IC50.
The next experiment concerns whole blood (pERK). Description: pERK Whole Blood. The format is cell-based.
A further experiment deals with human DGKα (Homo sapiens (Human), UniProt P23743). Kind of experiment: DGKα ADPGLO assay (detergent/lipid micelle substrate). The settings on record: ADPGLO assay; read-out: DGK alpha ADPGLO IC50. In kind it is biochemical. As for the experimental part: DGK Alpha ADPGLO (Truncated) IC50 (uM)
human DGKα, sequence (P23743 whole entry, looked up, the tested form may be a part): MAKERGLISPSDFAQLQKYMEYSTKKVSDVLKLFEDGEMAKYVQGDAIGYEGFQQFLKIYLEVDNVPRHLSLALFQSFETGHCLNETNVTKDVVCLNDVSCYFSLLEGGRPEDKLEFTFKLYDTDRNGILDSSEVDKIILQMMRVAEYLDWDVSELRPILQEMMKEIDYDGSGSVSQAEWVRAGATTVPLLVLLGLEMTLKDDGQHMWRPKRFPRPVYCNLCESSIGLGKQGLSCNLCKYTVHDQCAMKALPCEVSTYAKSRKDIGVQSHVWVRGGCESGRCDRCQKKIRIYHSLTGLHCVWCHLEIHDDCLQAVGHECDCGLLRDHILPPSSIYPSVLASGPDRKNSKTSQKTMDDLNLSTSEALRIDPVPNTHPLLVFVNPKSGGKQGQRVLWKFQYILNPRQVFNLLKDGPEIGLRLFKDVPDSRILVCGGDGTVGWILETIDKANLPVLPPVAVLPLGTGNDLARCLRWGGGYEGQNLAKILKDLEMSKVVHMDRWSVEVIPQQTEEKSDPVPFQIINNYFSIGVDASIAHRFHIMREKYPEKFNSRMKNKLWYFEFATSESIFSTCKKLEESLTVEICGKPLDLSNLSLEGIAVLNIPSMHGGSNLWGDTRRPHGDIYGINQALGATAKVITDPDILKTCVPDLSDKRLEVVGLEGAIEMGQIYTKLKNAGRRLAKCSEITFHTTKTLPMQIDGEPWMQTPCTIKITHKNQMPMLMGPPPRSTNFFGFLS
The detergent/lipid micelle was prepared by combining 15 g phosphatidylserine (Avanti 840035P) and 1 g diacylglycerol (8008110) and dissolving into 150 mL chloroform in a 2 L round bottom flask. Chloroform was removed under high vacuum by rotary evaporation. […] The lipid/detergent solution was split into 5 mL aliquots and stored at −80° C.
(ADP-Glo first removes unused ATP, then detects ADP through luciferase.)

human DGKζ, sequence (Q13574 other isoform, or with tags, fused parts or gaps): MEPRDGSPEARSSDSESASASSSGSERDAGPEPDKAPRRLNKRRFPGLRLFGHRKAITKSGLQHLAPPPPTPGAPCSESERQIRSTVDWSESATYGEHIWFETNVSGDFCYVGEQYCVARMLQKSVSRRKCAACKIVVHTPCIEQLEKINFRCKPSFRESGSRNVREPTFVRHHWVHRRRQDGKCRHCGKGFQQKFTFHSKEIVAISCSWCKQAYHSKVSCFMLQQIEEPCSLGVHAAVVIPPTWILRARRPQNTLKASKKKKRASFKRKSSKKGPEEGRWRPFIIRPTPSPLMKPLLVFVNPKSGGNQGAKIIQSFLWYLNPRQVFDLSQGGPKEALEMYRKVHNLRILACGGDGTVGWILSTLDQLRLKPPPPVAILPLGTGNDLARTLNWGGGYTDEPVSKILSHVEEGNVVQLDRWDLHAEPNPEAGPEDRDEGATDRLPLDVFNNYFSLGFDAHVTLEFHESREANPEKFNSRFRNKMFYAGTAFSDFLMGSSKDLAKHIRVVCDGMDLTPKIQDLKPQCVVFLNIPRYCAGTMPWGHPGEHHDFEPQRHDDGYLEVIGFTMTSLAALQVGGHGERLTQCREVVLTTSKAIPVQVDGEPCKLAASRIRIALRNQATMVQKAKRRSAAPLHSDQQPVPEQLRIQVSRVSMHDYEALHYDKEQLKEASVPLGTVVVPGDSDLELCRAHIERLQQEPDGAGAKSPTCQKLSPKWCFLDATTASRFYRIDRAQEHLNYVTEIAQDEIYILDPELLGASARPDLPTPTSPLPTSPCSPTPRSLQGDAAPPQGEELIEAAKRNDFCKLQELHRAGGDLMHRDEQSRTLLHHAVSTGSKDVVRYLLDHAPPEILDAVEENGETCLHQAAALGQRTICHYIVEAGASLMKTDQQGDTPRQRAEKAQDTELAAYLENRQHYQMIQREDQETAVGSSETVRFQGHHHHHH

For `CCC(c1c(F)cc(OCC2CC2)cc1F)N1C[C@H](C)N(c2nc(=O)n(C)c3ccc(C#N)nc23)C[C@H]1CC` (stereo partly drawn) [Example 327, 4-((2S,5R)-4-(1-(4-(cyclopropylmethoxy)-2,6-difluorophenyl)propyl)-5-ethyl-2-methylpiperazin-1-yl)-1-methyl-2-oxo-1,2-dihydropyrido[3,2-d]pyrimidine-6-carbonitrile], the values for the IC50 at human DGKζ and on human DGKα were 57 nM and 320 nM, respectively. In addition, the EC50 in the experiment with whole blood (pERK) was found to be 2.07 µM.

Regarding `COC[C@H]1CN(C(C)c2ccc(C(F)(F)F)cc2)[C@H](C)CN1c1nc(=O)n(C)c2ccc(C#N)nc12` (single isomer, unassigned) [Example 409], the IC50 worked out at 1080 nM at human DGKζ and 72 nM at human DGKα. Moreover, the EC50 in the experiment on whole blood (pERK) turned out to be 20 µM.

On to `CC(c1ccc(C(F)(F)F)cc1)N1C[C@H](CO)N(c2nc(=O)n(C)c3ccc(C#N)nc23)C[C@H]1C` (single isomer, unassigned) [Example 406], for which the IC50 at human DGKζ came out at 81100 nM; on human DGKα it was 1960 nM. The compound also yielded an EC50 in the experiment with whole blood (pERK) of 7.13 µM.

Turning to `CCC(c1ccc(F)c(F)c1)N1C[C@H](C)N(c2nc(=O)n(C)c3ccc(C#N)nc23)C[C@H]1CC` (stereo partly drawn) [Example 320, 4-((2S,5R)-4-(1-(3,4-difluorophenyl)propyl)-5-ethyl-2-methylpiperazin-1-yl)-1-methyl-2-oxo-1,2-dihydropyrido[3,2-d]pyrimidine-6-carbonitrile], the IC50 on human DGKζ was determined as 620 nM; at human DGKα, 420 nM. Moreover, the EC50 in the experiment with whole blood (pERK) was determined as 0.93 µM.

Consider `CC[C@H]1CN(C(C)c2ccc(C(F)(F)F)cc2)[C@H](CC)CN1c1nc(=O)n(C)c2ccc(C(F)F)nc12` (stereo partly drawn) [Example 439, 4-((2S,5R)-2,5-Diethyl-4-(1-(4-(trifluoromethyl)phenyl)ethyl)piperazin-1-yl)-6-(difluoromethyl)-1-methylpyrido[3,2-d]pyrimidin-2(1H)-one], for which the IC50 is 400 nM on human DGKζ and 360 nM at human DGKα. Also, a half-maximal response in the experiment with whole blood (pERK) (EC50) required 10.9 µM.

For `CCC(c1ccc(OCC2(C)CC2)cc1)N1C[C@H](C)N(c2nc(=O)n(C)c3ccc(C#N)nc23)C[C@H]1CC` (stereo partly drawn) [Example 345, 4-((2S,5R)-5-ethyl-2-methyl-4-(1-(4-((1-methylcyclopropyl)methoxy)phenyl)propyl)piperazin-1-yl)-1-methyl-2-oxo-1,2-dihydropyrido[3,2-d]pyrimidine-6-carbonitrile], the IC50 at human DGKζ turned out to be 95 nM; at human DGKα, 49 nM. The midpoint of the response with whole blood (pERK), the EC50, lay at 1.74 µM.

On to `CC[C@@H]1CN(c2nc(=O)n(C)c3ccc(C#N)nc23)[C@@H](C)CN1C(C)c1ccc(C(F)(F)F)c(C#N)c1` (single isomer, unassigned) [Example 357], for which the IC50 on human DGKζ turned out to be 1560 nM; on human DGKα it was 2080 nM. In addition, in the experiment with whole blood (pERK), the EC50 worked out at 3.78 µM.

Turning to `CCC(c1ccc(OCC2COC2)cc1)N1C[C@H](C)N(c2nc(=O)n(C)c3ccc(C#N)nc23)C[C@H]1CC` (stereo partly drawn) [Example 341, 4-((2S,5R)-5-ethyl-2-methyl-4-(1-(4-(oxetan-3-ylmethoxy)phenyl)propyl)piperazin-1-yl)-1-methyl-2-oxo-1,2-dihydropyrido[3,2-d]pyrimidine-6-carbonitrile], the IC50 on human DGKζ came out at 130 nM; on human DGKα it was 61 nM. This compound also gave an EC50 in the experiment with whole blood (pERK) of 2.98 µM.

Take `CC(c1ccc(CN2CC3(COC3)C2)cc1)N1C[C@H](C)N(c2nc(=O)n(C)c3ccc(C#N)nc23)C[C@H]1C` (stereo partly drawn) [Example 393, 4-((2S,5R)-4-(1-(4-((2-oxa-6-azaspiro[3.3]heptan-6-yl)methyl)phenyl)ethyl)-2,5-dimethylpiperazin-1-yl)-1-methyl-2-oxo-1,2-dihydropyrido[3,2-d]pyrimidine-6-carbonitrile]: the IC50 worked out at 125000 nM on human DGKζ and 23500 nM at human DGKα. The same compound had an EC50 with whole blood (pERK) of 3.45 µM.

With `CC(c1ccc(CN2C[C@@H](C)O[C@@H](C)C2)cc1)N1C[C@H](C)N(c2nc(=O)n(C)c3ccc(C#N)nc23)C[C@H]1C` (stereo partly drawn) [Example 389, 4-((2S,5R)-4-(1-(4-(((2S,6R)-2,6-dimethylmorpholino)methyl)phenyl)ethyl)-2,5-dimethylpiperazin-1-yl)-1-methyl-2-oxo-1,2-dihydropyrido[3,2-d]pyrimidine-6-carbonitrile], the IC50 was found to be 8220 nM on human DGKζ and 1000 nM on human DGKα. Moreover, in the experiment with whole blood (pERK), the EC50 turned out to be 0.37 µM.

For `[2H]C([2H])([2H])n1c(=O)nc(N2C[C@@H](CC)N(C(C)c3ccc(C(F)(F)F)cc3)C[C@@H]2C)c2nc(Cl)ccc21` (single isomer, unassigned) [Example 418], the IC50 at human DGKζ stood at 8710 nM; at human DGKα it was 92 nM. This compound displayed an EC50 in the experiment with whole blood (pERK) of 20 µM.

Regarding `[2H]C([2H])([2H])n1c(=O)nc(N2C[C@@H](CC)N(C(C)c3ccc(C(F)(F)F)cc3)C[C@@H]2C)c2nc(Cl)ccc21` (single isomer, unassigned) [Example 417], the IC50 on human DGKζ was determined as 520 nM; on human DGKα, 170 nM. In the experiment with whole blood (pERK), the EC50 was 20 µM.

For `CCC(c1ccc(OCC2CN(C)C2)cc1)N1C[C@H](C)N(c2nc(=O)n(C)c3ccc(C#N)nc23)C[C@H]1CC` (stereo partly drawn) [Example 344, 4-((2 S, 5R)-5-ethyl-2-methyl-4-(1-(4-((1-methylazetidin-3-yl)methoxy)phenyl)propyl)piperazin-1-yl)-1-methyl-2-oxo-1,2-dihydropyrido[3,2-d]pyrimidine-6-carbonitrile], the figures for the IC50 on human DGKζ and on human DGKα were 17100 nM and 10100 nM, respectively. The EC50 in the experiment with whole blood (pERK) was 20 µM.

For the compound `CC[C@@H]1CN(c2nc(=O)n(C)c3ccc(C#N)nc23)[C@@H](C)CN1C(c1ccc(OC(C)C)cc1)C(C)C` (stereo partly drawn) [Example 323, 4-((2S,5R)-5-ethyl-4-(1-(4-isopropoxyphenyl)-2-methylpropyl)-2-methylpiperazin-1-yl)-1-methyl-2-oxo-1,2-dihydropyrido[3,2-d]pyrimidine-6-carbonitrile], the IC50 at human DGKζ is 21 nM; at human DGKα, 520 nM. The compound also displayed an EC50 with whole blood (pERK) of 0.67 µM.

Regarding `CCC(c1ccc(OCC2COC2)cc1)N1C[C@H](C)N(c2nc(=O)n(C)c3ccc(C#N)nc23)C[C@H]1CC` (stereo partly drawn) [Example 342, 4-((2S,5R)-5-ethyl-2-methyl-4-(1-(4-(oxetan-3-ylmethoxy)phenyl)propyl)piperazin-1-yl)-1-methyl-2-oxo-1,2-dihydropyrido[3,2-d]pyrimidine-6-carbonitrile], the IC50 at human DGKζ was 1200 nM; at human DGKα it was 1090 nM. Moreover, the EC50 in the experiment on whole blood (pERK) was 7.93 µM.

On to `CCC(c1ccc(OCc2nccs2)cc1)N1C[C@H](C)N(c2nc(=O)n(C)c3ccc(C#N)nc23)C[C@H]1CC` (stereo partly drawn) [Example 347, 4-((2S,5R)-5-ethyl-2-methyl-4-(1-(4-(thiazol-2-ylmethoxy)phenyl)propyl)piperazin-1-yl)-1-methyl-2-oxo-1,2-dihydropyrido[3,2-d]pyrimidine-6-carbonitrile], for which the IC50 on human DGKζ was determined as 950 nM; on human DGKα, 320 nM. In addition, the EC50 in the experiment on whole blood (pERK) came out at 1.99 µM.

Take `CCC(c1ccc(OCC2CCOCC2)cc1)N1C[C@H](C)N(c2nc(=O)n(C)c3ccc(C#N)nc23)C[C@H]1CC` (stereo partly drawn) [Example 338, 4-((2S,5R)-5-ethyl-2-methyl-4-(1-(4-((tetrahydro-2H-pyran-4-yl)methoxy)phenyl)propyl)piperazin-1-yl)-1-methyl-2-oxo-1,2-dihydropyrido[3,2-d]pyrimidine-6-carbonitrile]: the IC50 on human DGKζ turned out to be 1310 nM; on human DGKα it was 910 nM. The compound also had an EC50 in the experiment on whole blood (pERK) of 20 µM.

Regarding `CCC(c1ccc(C(C)(C)C#N)cc1)N1C[C@H](C)N(c2nc(=O)n(C)c3ccc(C#N)nc23)C[C@H]1CC` (stereo partly drawn) [Example 317, 4-((2S,5R)-4-(1-(4-(2-cyanopropan-2-yl)phenyl)propyl)-5-ethyl-2-methylpiperazin-1-yl)-1-methyl-2-oxo-1,2-dihydropyrido[3,2-d]pyrimidine-6-carbonitrile], the IC50 on human DGKζ was 26 nM; at human DGKα it was 17 nM. Further, in the experiment on whole blood (pERK), the EC50 came to 0.18 µM.

`CCC(c1ccc(OCC2CN(C)C2)cc1)N1C[C@H](C)N(c2nc(=O)n(C)c3ccc(C#N)nc23)C[C@H]1CC` (stereo partly drawn) [Example 343, 4-((2 S, 5R)-5-ethyl-2-methyl-4-(1-(4-((1-methylazetidin-3-yl)methoxy)phenyl)propyl)piperazin-1-yl)-1-methyl-2-oxo-1,2-dihydropyrido[3,2-d]pyrimidine-6-carbonitrile]: the IC50 on human DGKζ was determined as 6330 nM; at human DGKα it was 740 nM. The same compound showed an EC50 with whole blood (pERK) of 0.073 µM.

For `CC(c1ccc(C(F)(F)F)cc1)N1C[C@H](CO)N(c2nc(=O)n(C)c3ccc(C#N)nc23)C[C@H]1C` (single isomer, unassigned) [Example 407], the 50% inhibitory concentration (IC50) was determined as 31000 nM at human DGKζ and 400 nM on human DGKα. In the experiment on whole blood (pERK), this compound came in with an EC50 of 0.64 µM.

Turning to `CCC(c1ccc(C(F)(F)F)cc1)N1C[C@H](CC)N(c2nc(=O)[nH]c3ccc(C#N)nc23)C[C@H]1CC` (stereo partly drawn) [Example 415, 4-((2S,5R)-2,5-diethyl-4-(1-(4-(trifluoromethyl)phenyl)propyl)piperazin-1-yl)-2-oxo-1,2-dihydropyrido[3,2-d]pyrimidine-6-carbonitrile], the IC50 stood at 61900 nM on human DGKζ and 3310 nM on human DGKα. In the experiment on whole blood (pERK), the response was half-maximal at 3.44 µM (EC50).

With `CC[C@@H]1CN(c2nc(=O)n(C)c3ccc(C(F)F)nc23)[C@@H](C)CN1C(C)c1ccc(C(F)(F)F)cc1` (stereo partly drawn) [Example 441, 6-(difluoromethyl)-4-((2S,5R)-5-ethyl-2-methyl-4-(1-(4-(trifluoromethyl)phenyl)ethyl)piperazin-1-yl)-1-methylpyrido[3,2-d]pyrimidin-2(1H)-one], the values for the IC50 on human DGKζ and at human DGKα were 26900 nM and 190 nM, respectively. This compound had an EC50 in the experiment on whole blood (pERK) of 0.7 µM.

One may read the IC50 as the concentration that inhibits the measured activity by half. For orientation: EC50 means the concentration giving half of the maximal effect. The low end stands for an effect from little substance, the high end for a need for much substance.

Source of the values: patent publication US11584747B2, “Substituted pyridopyrimidinonyl compounds useful as T cell activators” (BRISTOL-MYERS SQUIBB COMPANY, priority 2019, dated 2023).
